Data: patent US4868291A, “4'-deshydroxyepipodophyllotoxin glucosides: synthesis and use” (Bristol-Myers Company, priority 1987, dated 1989)
Values after ≈ are worked out from the molar mass of the structure shown. Like-named read-outs stand apart in the source and are kept apart here.

Columns and labels:
[1] = tested on: HCT/VP35; test: In vitro cytotoxicity assay, HCT/VP35 human colon, etoposide resistant; format: cell-based; settings: dissolved in DMSO, two unlabelled lines of values
Experimental: (§1) The in vitro cytotoxicity assay involves growing various mammalian tumor cells, including human tumor cells, on Microtiter plates employing established tissue culture methods. The concentration of each compound required to inhibit cell growth by 50% (IC50) is then determined by a four-fold serial dilution technique. The validity of the method has been supported by a report published in the "Proceedings of the American Association for Cancer Research", 1984, 25: 1891 (Abst. No. 328). Tumor cells of the following type were employed: B16-F10 murine melanoma, Moser human colon, SW900 human lung resistant to teniposide (VM) and etoposide (VP) and three human colon tumor cell lines, i.e. HCT-116, HCT-VM and HCT-VP, the latter two being resistant to teniposide (VM) and etoposide (VP), respectively. IC50 values less than […] are a positive indicator of antitumor activity. Table I presents IC50 values against the above-mentioned cell lines.

[2] = tested on: P388 murine leukemia; test: Antitumor activity against murine P388 leukemia in CDF1 mice; format: in vivo
Experimental: Female CDF1 mice were implanted intraperitoneally with a tumor inoculum of 10^6 ascites cells of P388 murine leukemia and treated with various doses of the compound of Example 4; four mice were used for each dose level and ten were used as saline-treated control. The compound was administered by intraperitoneal injection in two injections on day 1 and day 5. Antitumor activity was expressed as %T/C which is the ratio of the median survival time (MST) of the drug-treated group to the MST of the saline-treated control group. A compound showing a %T/C of 125 or greater is generally considered to have significant antitumor activity in the P388 test. The experiment lasted 31 days at the end of which time the number of survivors was noted.

[3] = tested on: B16-F10; test: In vitro cytotoxicity assay, B16-F10 murine melanoma; format: cell-based; settings: dissolved in DMSO, two unlabelled lines of values
Experimental: as §1

[4] = tested on: MOSER; test: In vitro cytotoxicity assay, Moser human colon; format: cell-based; settings: dissolved in DMSO, two unlabelled lines of values
Experimental: as §1

[5] = tested on: variety of cancers including small cell lung cancer, non-lymphocytic leukemia and non-seminomatous testicular cancer; settings: clinical, background statement; cited from earlier work
[6] = Haim et al. 1986; cited from earlier work

Compound | IC50 ([1]; HCT/VP35, resistant to etoposide) [µg/mL] | IC50 ([1]; Homo sapiens, HCT/VP35, HCT/VP35, resistant to etoposide, read-out: IC50) [µg/mL] | MST (median survival time) ([2]; 150 mg/kg/inj., i.p., days 1 and 5, dose with maximum effect, saline control 10.0 days) [days] | Day 5 No. mice alive/total ([2]; 150 mg/kg/inj., i.p., day 5) | mice alive at day 31 ([2]; day 31, test or control group) | % T/C (MST treated / MST control) ([2]; maximum %T/C, at 150 mg/kg/inj., i.p., days 1 and 5, 125 or greater is significant) [%] | IC50 ([3]; B16-F10) [µg/mL] | IC50 ([3]; Mus musculus, B16-F10, B16-F10, read-out: IC50) [µg/mL] | IC50 ([4]; Homo sapiens, read-out: IC50) [µg/mL] | IC50 [4] [µg/mL] | activity in the treatment of cancers [5] | metabolites formed on peroxidative activation [6]
COc1cc(OC)cc([C@@H]2c3cc4c(cc3[C@@H](O[C@@H]3O[C@@H]5CO[C@@H](C)O[C@H]5[C@H](O)[C@H]3O)[C@H]3COC(=O)[C@H]23)OCO4)c1 [Example 4, 4'-Desmethoxyetoposide] | 3.5 (≈ 6.11 µM) | 3.3 (≈ 5.76 µM) | 17.5 | 4/4 | no mice were alive | 175 | 27 (≈ 47.2 µM) | 23 (≈ 40.2 µM) | 60 (≈ 105 µM) | 31 (≈ 54.1 µM) | – | –
COc1cc([C@@H]2c3cc4c(cc3[C@@H](O[C@@H]3O[C@@H]5CO[C@@H](c6cccs6)O[C@H]5[C@H](O)[C@H]3O)[C@H]3COC(=O)[C@H]23)OCO4)cc(OC)c1O [Teniposide] | – | – | – | – | – | – | – | – | – | – | active in the treatment of a variety of cancers | formation of two metabolites, one of which has been identified as the corresponding orthoquinone III
COc1cc([C@@H]2c3cc4c(cc3[C@@H](O[C@@H]3O[C@@H]5CO[C@@H](C)O[C@H]5[C@H](O)[C@H]3O)[C@H]3COC(=O)[C@H]23)OCO4)cc(OC)c1O [Etoposide] | – | – | – | – | – | – | – | – | – | – | active in the treatment of a variety of cancers | formation of two metabolites, one of which has been identified as the corresponding orthoquinone III
